Data as given in PubChem BioAssay AID330 (DTP/NCI, 2004).
Values joined by “and” are separate entries in the source; they are usually repeats but may differ in a detail not shown here. Identical values can stand only once. Inconclusive results and toxic doses are left out. The calls were made as follows: active = survival T/C of 150% or more; inactive = T/C below 125% in these data.

Tested on: P388 leukemia ip, CD2F1 mice, survival T/C
Assay: NCI In Vivo Anticancer Drug Screen. Data for tumor model P388 Leukemia (intraperitoneal) in CD2F1 (CDF1) mice
Details: endpoint: median survival time, higher = longer survival
Procedure, shortened: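 Mice carrying the transplanted tumor received test compound or vehicle. Survival was recorded in each group, and the value is the treated-group measurement divided by that of the vehicle-treated control group.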

[1] = dose: 50.0 mg/kg/injection, schedule: Q01DX009 (ip), vehicle: Klucel (hydroxypropylcellulose) (HPC)
[2] = dose: 100.0 mg/kg/injection, schedule: Q01DX009 (ip), vehicle: Klucel (hydroxypropylcellulose) (HPC)
[3] = dose: 200.0 mg/kg/injection, schedule: Q01DX009 (ip), vehicle: Klucel (hydroxypropylcellulose) (HPC)
[4] = dose: 12.5 mg/kg/injection, schedule: Q01DX009 (ip), vehicle: saline
[5] = dose: 25.0 mg/kg/injection, schedule: Q01DX009 (ip), vehicle: saline
[6] = dose: 50.0 mg/kg/injection, schedule: Q01DX005 (ip), vehicle: saline with Tween-80
[7] = dose: 50.0 mg/kg/injection, schedule: Q01DX009 (ip), vehicle: saline
[8] = dose: 100.0 mg/kg/injection, schedule: Q01DX005 (ip), vehicle: saline with Tween-80
[9] = dose: 100.0 mg/kg/injection, schedule: Q01DX009 (ip), vehicle: saline
[10] = dose: 50.0 mg/kg/injection, schedule: Q01DX005 (ip), vehicle: Klucel (hydroxypropylcellulose) (HPC)
[11] = dose: 100.0 mg/kg/injection, schedule: Q01DX005 (ip), vehicle: Klucel (hydroxypropylcellulose) (HPC)
[12] = dose: 200.0 mg/kg/injection, schedule: Q01DX005 (ip), vehicle: Klucel (hydroxypropylcellulose) (HPC)
[13] = dose: 200.0 mg/kg/injection, schedule: Q01DX005 (ip), vehicle: saline with Tween-80

Measured: T/C

CC(C)N1CCC(Oc2ccc3ccccc3n2)C1 (configuration not stated)
inactive: [1] 100 % of control | [2] 91 % of control

O=C1CC2OCC=C3CN4CCC56c7ccccc7N1C5C2C3CC46 (configuration not stated) (tested in a mixture with another compound)
inactive: dose: 0.38 mg/kg/injection, schedule: Q01DX009 (ip), vehicle: saline + alcohol 100 % of control | dose: 0.75 mg/kg/injection, schedule: Q01DX009 (ip), vehicle: saline + alcohol 109 % of control | dose: 1.5 mg/kg/injection, schedule: Q01DX009 (ip), vehicle: saline + alcohol 95 % of control

Nc1ccc(S(=O)(=O)c2ccc(NCNc3ccc(S(=O)(=O)c4ccc(N)cc4)cc3)cc2)cc1
inactive: dose: 100.0 mg/kg/injection, schedule: Q01DX009 (ip), vehicle: saline with Tween-80 94 % of control | dose: 200.0 mg/kg/injection, schedule: Q01DX009 (ip), vehicle: saline with Tween-80 91 % of control | dose: 400.0 mg/kg/injection, schedule: Q01DX009 (ip), vehicle: saline with Tween-80 94 % of control

CC(=O)OC(C(=O)O)N1C(=O)C2C3C=CC(C2C1=O)C1C2C(=O)N(C(OC(C)=O)C(=O)O)C(=O)C2C31 (configuration not stated)
inactive: dose: 25.0 mg/kg/injection, schedule: Q01DX009 (ip), vehicle: water 103 % of control | dose: 50.0 mg/kg/injection, schedule: Q01DX009 (ip), vehicle: water 110 % of control | dose: 100.0 mg/kg/injection, schedule: Q01DX009 (ip), vehicle: water 110 % of control and 113 % of control and 123 % of control

O=C(O)C1C2C=CC(O2)C1C(=O)Nn1cccc1 (configuration not stated)
inactive: [1] 99 % of control | [2] 94 % of control | [3] 95 % of control

O=C(O)c1c(Cl)c(Cl)c(Cl)c(Cl)c1-c1c2cc(I)c(=O)c(I)c-2oc2c(I)c(O)c(I)cc12
inactive: [4] 103 % of control | [5] 88 % of control | [6] 92 % of control | [7] 88 % of control and 91 % of control | [8] 86 % of control | [9] 97 % of control

COc1ccc(C2=C(Cl)C(=O)N(c3ccc(Cl)cc3)C(=O)C2(Cl)Cl)cc1
inactive: dose: 100.0 mg/kg/injection, schedule: Q04DX002 (ip), vehicle: Klucel (hydroxypropylcellulose) (HPC) 101 % of control | dose: 200.0 mg/kg/injection, schedule: Q04DX002 (ip), vehicle: Klucel (hydroxypropylcellulose) (HPC) 94 % of control | dose: 400.0 mg/kg/injection, schedule: Q04DX002 (ip), vehicle: Klucel (hydroxypropylcellulose) (HPC) 97 % of control

CCN(CC)CCOCc1cccc2c(=O)cc(-c3ccccc3)oc12
inactive: [7] 105 % of control | [9] 101 % of control

Cc1ccc(S(=O)(=O)C(Br)CC(=O)c2ccccc2)cc1 (configuration not stated)
inactive: dose: 100.0 mg/kg/injection, schedule: Q04DX002 (ip), vehicle: saline 100 % of control | dose: 200.0 mg/kg/injection, schedule: Q04DX002 (ip), vehicle: saline 101 % of control | dose: 400.0 mg/kg/injection, schedule: Q04DX002 (ip), vehicle: saline 109 % of control

COc1c(NC(C)=O)c2ccccc2c2ccccc12
inactive: [10] 106 % of control | [11] 109 % of control | [12] 97 % of control

O=S(=O)(c1ccccc1)C(SC(=S)Sc1ccccc1)Sc1ccccc1 (configuration not stated)
inactive: [4] 104 % of control | [5] 107 % of control | dose: 50.0 mg/kg/injection, schedule: Q01DX009 (ip), vehicle: saline with Tween-80 114 % of control | [7] 96 % of control

COC(=O)[C@@]12OC[C@]34C([C@@H](O)C1O)[C@@]1(C)CC(=O)C(O)=C(C)C1C[C@H]3OC(=O)[C@H](OC(=O)c1ccc(Cl)cc1)[C@H]42 (some centres not stated)
inactive: dose: 0.25 mg/kg/injection, schedule: Q01DX005 (ip), vehicle: DMSO 112 % of control | dose: 0.5 mg/kg/injection, schedule: Q01DX005 (ip), vehicle: DMSO 116 % of control | dose: 1.0 mg/kg/injection, schedule: Q01DX005 (ip), vehicle: DMSO 113 % of control and 115 % of control | dose: 2.0 mg/kg/injection, schedule: Q01DX005 (ip), vehicle: DMSO 109 % of control and 118 % of control | dose: 4.0 mg/kg/injection, schedule: Q01DX005 (ip), vehicle: DMSO 109 % of control | dose: 8.0 mg/kg/injection, schedule: Q01DX005 (ip), vehicle: DMSO 110 % of control and 115 % of control | dose: 16.0 mg/kg/injection, schedule: Q01DX005 (ip), vehicle: DMSO 112 % of control

COC1/C=C\OC2(C)Oc3c(C)c(O)c4c(c3C2=O)C(=O)C(Br)=C(NC(=O)/C(C)=C\C=C/C(C)C(O)C(C)C(O)C(C)C(OC(C)=O)C1C)C4=O (configuration not stated)
inactive: dose: 25.0 mg/kg/injection, schedule: Q01DX009 (ip), vehicle: Klucel (hydroxypropylcellulose) (HPC) 102 % of control | [1] 97 % of control | [2] 102 % of control | [3] 100 % of control

CCSSC1(C)C(=O)N2CCCC2C(=O)N1C (configuration not stated)
inactive: dose: 25.0 mg/kg/injection, schedule: Q04DX003 (ip), vehicle: saline 109 % of control | dose: 50.0 mg/kg/injection, schedule: Q04DX003 (ip), vehicle: saline 103 % of control | dose: 100.0 mg/kg/injection, schedule: Q04DX003 (ip), vehicle: saline 104 % of control

NC(=S)N/N=C/c1cc(=O)c2cc(Cl)ccc2o1
inactive: [6] 94 % of control | [8] 93 % of control | [13] 92 % of control

CCOC(=O)c1ccc(NC(=S)P(=O)(c2ccccc2)c2ccccc2)cc1
inactive: [1] 88 % of control | [2] 89 % of control | [3] 94 % of control

CCCCC[C@@H]1CCCC2C1CCC(CCCCCO)N2C(=O)OCC(Cl)(Cl)Cl (some centres not stated)
inactive: [6] 100 % of control | [8] 106 % of control | [13] 100 % of control

CCCCCCCCCCCCCCNC(=O)C[N+](C)(C)Cc1ccccc1
inactive: dose: 0.25 mg/kg/injection, schedule: Q01DX009 (ip), vehicle: saline with Tween-80 100 % of control | dose: 0.5 mg/kg/injection, schedule: Q01DX009 (ip), vehicle: saline with Tween-80 100 % of control | dose: 1.0 mg/kg/injection, schedule: Q01DX009 (ip), vehicle: saline with Tween-80 100 % of control

Cc1ccc(N=NC2=C3Sc4ccccc4N=C2N(c2ccc(Br)cc2)C(=S)N3c2ccc(Cl)cc2)cc1
inactive: [6] 102 % of control | [8] 90 % of control | [13] 88 % of control

C[N+]1(C)CCCC(C(=O)c2ccccc2)C1 (configuration not stated)
inactive: dose: 3.75 mg/kg/injection, schedule: Q01DX005 (ip), vehicle: saline 119 % of control | dose: 7.5 mg/kg/injection, schedule: Q01DX005 (ip), vehicle: saline 108 % of control | dose: 15.0 mg/kg/injection, schedule: Q01DX005 (ip), vehicle: saline 103 % of control | dose: 30.0 mg/kg/injection, schedule: Q01DX005 (ip), vehicle: saline 100 % of control and 101 % of control

Nc1c2c(c(N)c3c1C(=O)c1ccccc1C3=O)OCO2
inactive: dose: 60.0 mg/kg/injection, schedule: Q01DX005 (ip), vehicle: saline with Tween-80 100 % of control | dose: 120.0 mg/kg/injection, schedule: Q01DX005 (ip), vehicle: saline with Tween-80 98 % of control | dose: 240.0 mg/kg/injection, schedule: Q01DX005 (ip), vehicle: saline with Tween-80 98 % of control

Cc1ccc(S(=O)(=O)N2CCCC2C(=O)NNC(N)=S)cc1 (configuration not stated)
inactive: [10] 99 % of control | [11] 89 % of control | [12] 91 % of control

Nc1ccc(Cl)cc1C(=O)N1CCN(c2ccc([N+](=O)[O-])cn2)CC1
inactive: dose: 7.5 mg/kg/injection, schedule: Q01DX005 (ip), vehicle: Klucel (hydroxypropylcellulose) (HPC) 99 % of control | dose: 15.0 mg/kg/injection, schedule: Q01DX005 (ip), vehicle: Klucel (hydroxypropylcellulose) (HPC) 92 % of control | dose: 30.0 mg/kg/injection, schedule: Q01DX005 (ip), vehicle: Klucel (hydroxypropylcellulose) (HPC) 93 % of control
